# PMC10303159, “Conjugation of Triterpenic Acids of Ursane and Oleanane Types with Mitochondria-Targeting Cation F16 Synergistically Enhanced Their Cytotoxicity against Tumor Cells” (Membranes, 2023)
# Assays:
# [1] = tested on: H1299 cells (human non-small cell lung cancer); test: MTT cytotoxicity assay, H1299; format: cell-based; settings: Homo sapiens, NCI-H1299, 48 h of treatment, mean ± SEM
# Excerpt: (§1) All cell lines used in this study (human non-small cell lung cancer—H1299 (Accession Number—CRL-5803), human lung carcinoma—A549 (Accession Number—CCL-185), human breast adenocarcinoma—MCF-7 (Accession Number—HTB-22), human breast ductal carcinoma—BT474 (Accession Number—HTB-20)) were purchased from American Type Culture Collection (ATCC, Manassas, VA, USA). Human primary dermal fibroblasts (HPDF) derived from a patch of skin of healthy donors (n = 3) were obtained from the biobank of the Institute for Regenerative Medicine, Lomonosov Moscow State University, collection ID: MSU_FB (https://human.depo.msu.ru (accessed on 14 September 2021)). Cells were grown in DMEM media supplemented with 10% fetal bovine serum, 100 μg/mL gentamycin, and 2 mM of glutamine at 37 °C in a 5% CO2 atmosphere.
# (§2) To carry out the MTT assay, 3500 cells per well were seeded in 96-well plates. A day after the seeding, triterpenoids or their derivatives dissolved in DMSO were added. DMSO was used as a control. At 48 h after cell seeding, 10 μL of 5 mg/mL Thiazolyl Blue (Paneko, Russia) solution was added to each well and cells were kept for 3 h at 37 °C in a CO2 incubator. After removing the thiazol-containing medium, 150 μL of isopropyl alcohol (supplemented with 40 mM HCl and 0.1% NP-40) was added to dissolve the MTT-formazan salt. The absorbance at 570 and 630 nm (reference) was measured using a BioRad iMark microplate reader (BioRad, Hercules, CA, USA). Four biological replicates were used for the experiment. The results were processed with Excel software (version number: 14.0.6023.1000 (32-bit)). IC50 values were calculated by using AAT Bioquest online calculator (https://www.aatbio.com/tools/ic50-calculator, accessed on 15 May 2023) and are represented as the mean ± SEM.
# [2] = tested on: A549 cells (human lung carcinoma); test: MTT cytotoxicity assay, A549; format: cell-based; settings: Homo sapiens, A549, 48 h, MTT assay, 48 h of treatment, mean ± SEM
# Excerpt: as §1
# as §2, with “A day after the seeding, triterpenoids or their derivatives dissolved in DMSO were added.” left out, “At 48 h after cell seeding, 10 μL of 5 mg/mL Thiazolyl Blue (Paneko, Russia) solution was added to each well and cells were kept for 3 h at 37 °C in a CO2 incubator.” left out
# [3] = tested on: MCF-7 cells (human breast adenocarcinoma); test: MTT cytotoxicity assay, MCF-7; format: cell-based; settings: for IC50: Homo sapiens, MCF7, MTT assay, 48 h of treatment, mean ± SEM; for Chou–Talalay combination index (CI): MCF7 cells, based on IC50 values for parent acid, F16 [23] and conjugate, CI < 1 synergism
# Excerpt: as §1, §2
# [4] = tested on: BT474 cells (human breast ductal carcinoma); test: MTT cytotoxicity assay, BT474; format: cell-based; settings: BT-474, 48 h of treatment, mean ± SEM
# Excerpt: as §1, §2
# [5] = tested on: Human primary dermal fibroblasts (HPDF); test: MTT cytotoxicity assay, HPDF; format: cell-based; settings: for IC50: Homo sapiens, Fibroblast, MTT assay, 48 h of treatment, mean ± SEM; for Selectivity index (SI): between tumor cells H1299, A549 and MCF-7 and fibroblasts
# Excerpt: as §1
# as §2, with “A day after the seeding, triterpenoids or their derivatives dissolved in DMSO were added.” left out, “At 48 h after cell seeding, 10 μL of 5 mg/mL Thiazolyl Blue (Paneko, Russia) solution was added to each well and cells were kept for 3 h at 37 °C in a CO2 incubator.” left out
# [6] = tested on: BT474 cells; test: Oxidative stress assay (Muse Oxidative Stress Kit), BT474; format: cell-based, human
# Protocol: Oxidative stress was assessed after cell culture and incubation (as described above). For this, cells were harvested by trypsinization, washed with ice-cold PBS buffer (pH 7.4), and centrifuged (1000 rpm, 5 min). The resulting cells were resuspended in PBS. Cell population analysis for oxidative stress was performed on a Muse cell analyzer (Merck Millipore, Burlington, MA, USA) using the Muse Oxidative Stress Kit (MCH100111) according to the manufacturer’s protocol.
# [7] = tested on: rat liver mitochondria; test: Respiration of isolated mitochondria fueled by glutamate and malate; format: biochemical
# Protocol: (§3) Mitochondria were obtained from the liver of male Wistar rats (210–250 g) using the differential centrifugation method. The detailed procedure and composition of the isolation media were described earlier. The suspension of isolated mitochondria contained about 60–70 mg of mitochondrial protein per ml (determined by the Bradford method).
# (§4) The rate of O2 consumption by mitochondrial samples was estimated using Oxygraph Plus (Hansatech Instruments Ltd., Pentney, King’s Lynn, UK). The reaction medium included 200 mM sucrose, 20 mM KCl, 0.5 mM EGTA, 5 mM KH2PO4, and 10 mM Hepes/KOH, pH 7.4. The following combinations of substrates and reagents were used: 2.5 mM potassium glutamate + 2.5 mM potassium malate and 5 mM potassium succinate + 1 µM rotenone. Under these conditions, it is possible to assess the oxygen-consuming capacity of mitochondria through complexes I and II of the electron transport chain. To determine the rates of the phosphorylating respiration (State 3) and uncoupled respiration (State 3UDNP) of the mitochondria, 200 µM ADP and 50 µM 2,4-dinitrophenol (DNP) were added sequentially. The concentration of mitochondrial protein was 1 mg/mL.
# [8] = tested on: rat liver mitochondria; test: Respiration of isolated mitochondria fueled by succinate; format: biochemical
# Protocol: as §3, §4
# [9] = tested on: rat liver mitochondria; test: Mitochondrial membrane potential (TPP-sensitive electrode); format: biochemical; settings: glutamate + malate or succinate + rotenone, Figure 5
# Protocol: as §3
# The mitochondrial membrane potential (Δψ) was measured using a penetrating tetraphenylphosphonium bromide (TPP) cation and a TPP-sensitive electrode (Nico-Analyte Ltd., Moscow, Russia) as described previously. The concentration of mitochondrial protein was 1 mg/mL.
# [10] = tested on: rat liver mitochondria; test: Mitochondrial H2O2 generation (Amplex Red); format: biochemical; settings: 5 μM
# Protocol: as §3
# The fluorescent probe Amplex Red (λex = 560 nm; λem = 590 nm) and a plate reader Varioskan Lux were used to register mitochondrial H2O2 generation. In this case, 0.15 mg of mitochondrial protein was incubated in the buffer containing 210 mM mannitol, 70 mM sucrose, 10 μM EGTA, 10 µM Amplex Red, 1 µM rotenone, 10 µM EGTA, horseradish peroxidase (HRP 1 a.u./mL), 10 mM Hepes/KOH, and at a pH of 7.4. […] The kinetics of H2O2 generation was recorded for three minutes.
Compound,IC50 [1] [nM],IC50 [2] [nM],IC50 [3] [nM],Chou–Talalay combination index (CI) [3],IC50 [4] [nM],IC50 [5] [nM],Selectivity index (SI) [5],ADP/O ([7]; 10 μM) [rel. un.],RC (state 3/state 4) ([7]; 10 μM) [rel. un.],State 2 respiration ([7]; 10 μM) [nmol O2/min/mg Protein],State 3UDNP respiration ([7]; 10 μM) [nmol O2/min/mg Protein],State 3 respiration ([7]; 10 μM) [nmol O2/min/mg Protein],State 4 respiration ([7]; 10 μM) [nmol O2/min/mg Protein],ADP/O ([7]; 20 μM) [rel. un.],RC (state 3/state 4) ([7]; 20 μM) [rel. un.],State 2 respiration ([7]; 20 μM) [nmol O2/min/mg Protein],State 3UDNP respiration ([7]; 20 μM),State 3 respiration ([7]; 20 μM) [nmol O2/min/mg Protein],State 4 respiration ([7]; 20 μM) [nmol O2/min/mg Protein],ADP/O ([8]; 10 μM) [rel. un.],further results
CC1CCC2(C(=O)OCCCC[n+]3ccc(C=Cc4c[nH]c5ccccc45)cc3)CCC3(C)C(=CCC4C5(C)CCC(O)C(C)(C)C5CCC43C)C2C1C (stereo not shown) [UA-F16],2800 ± 250,2400 ± 300,1360 ± 740,0.05,5180 ± 150,4980 ± 900,1.8–3.7,2.65 ± 0.05,2.20 ± 0.04,7.70 ± 0.33,35.23 ± 0.89,25.89 ± 0.86,11.78 ± 0.22,0.74 ± 0.14,1.02 ± 0.02,14.75 ± 0.21,28.29 ± 1.18 nmol O2/min/mg Protein,19.35 ± 0.90,19.06 ± 1.11,1.28 ± 0.04,"Selectivity against tumor cells and human fibroblasts ([5]; in words): highest selectivity; Effect on level of ROS-positive cells ([6]; BT474, 3 μM): significantly increase the level of ROS-positive cells; RC (state 3/state 4) ([8]; 10 μM): 2.65 ± 0.07 rel. un.; State 2 respiration ([8]; 10 μM): 14.42 ± 0.24 nmol O2/min/mg Protein; State 3UDNP respiration ([8]; 10 μM): 67.34 ± 2.12 nmol O2/min/mg Protein; State 3 respiration ([8]; 10 μM): 46.39 ± 0.30 nmol O2/min/mg Protein; State 4 respiration ([8]; 10 μM): 17.51 ± 0.23 nmol O2/min/mg Protein; ADP/O ([8]; 20 μM): 0.86 ± 0.05 *#^γ rel. un.; RC (state 3/state 4) ([8]; 20 μM): 1.37 ± 0.11 rel. un.; State 2 respiration ([8]; 20 μM): 15.86 ± 0.40 nmol O2/min/mg Protein; State 3UDNP respiration ([8]; 20 μM): 64.18 ± 3.81 nmol O2/min/mg Protein; State 3 respiration ([8]; 20 μM): 43.98 ± 1.31 nmol O2/min/mg Protein; State 4 respiration ([8]; 20 μM): 32.20 ± 1.68 nmol O2/min/mg Protein"
CC1(C)CCC2(C(=O)OCCCC[n+]3ccc(C=Cc4c[nH]c5ccccc45)cc3)CCC3(C)C(=CCC4C5(C)CCC(O)C(C)(C)C5CCC43C)C2C1 (stereo not shown) [OA-F16],930 ± 70,740 ± 90,1520 ± 160,0.03,4340 ± 280,2050 ± 580,1.3–2.8,2.80 ± 0.13,2.24 ± 0.11,6.47 ± 0.27,31.34 ± 0.49,23.82 ± 0.53,10.65 ± 0.24,0.64 ± 0.05,1.03 ± 0.04,15.38 ± 0.30,23.24 ± 0.61 *#^γ nmol O2/min/mg Protein,17.02 ± 0.97,16.55 ± 0.54,1.41 ± 0.09,"Effect on level of ROS-positive cells ([6]; BT474, 2 μM): significantly increase the level of ROS-positive cells; RC (state 3/state 4) ([8]; 10 μM): 2.83 ± 0.20 rel. un.; State 2 respiration ([8]; 10 μM): 14.39 ± 0.65 nmol O2/min/mg Protein; State 3UDNP respiration ([8]; 10 μM): 69.57 ± 1.73 nmol O2/min/mg Protein; State 3 respiration ([8]; 10 μM): 48.46 ± 0.82 nmol O2/min/mg Protein; State 4 respiration ([8]; 10 μM): 17.22 ± 0.93 nmol O2/min/mg Protein; ADP/O ([8]; 20 μM): 1.15 ± 0.05 rel. un.; RC (state 3/state 4) ([8]; 20 μM): 1.25 ± 0.10 rel. un.; State 2 respiration ([8]; 20 μM): 14.05 ± 0.18 nmol O2/min/mg Protein; State 3UDNP respiration ([8]; 20 μM): 56.46 ± 4.21 nmol O2/min/mg Protein; State 3 respiration ([8]; 20 μM): 41.57 ± 1.36 nmol O2/min/mg Protein; State 4 respiration ([8]; 20 μM): 33.23 ± 0.75 nmol O2/min/mg Protein; Effect on membrane potential of organelles [9]: the most effective; Effect on production of H2O2 by organelles [10]: antioxidant effect"
